Measurements as given in patent publication US12319655B2, “RAF kinase inhibitors and methods of use thereof” (Deciphera Pharmaceuticals, LLC, priority 2021, dated 2025).

Columns and labels:
[1] = biological target: C-Raf kinase (SEQ. ID NO: 3) (Homo sapiens (Human), UniProt P04049, Y340D/Y341D); experiment: Biochemical Assay for C-Raf (1); conditions: Table J, assay version (1); read-out: CRAF (1) IC50
Outline: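 IC50 values come from a four-parameter fit of percent inhibition, using the reaction rate over 4–5 h of a 6 h continuous 340 nm read at 30 °C. The enzyme mix was C-Raf 0.43 nM, MEK substrate 30.1 nM and ATP 1 mM, in a PK/LDH NADH-coupled format in Tris pH 7.5 with 1% DMSO.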

H2405 cells = experiment: H2405 Cell Proliferation Assay (1); type: cell-based; conditions: Homo sapiens, NCI-H2405
Outline: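 Viability was read by resazurin reduction (ex 540 nm, em 600 nm; 5-6 h with 40 μL of 440 μM stock) after 67-72 h compound exposure at 37 °C.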

A375 cells = experiment: A375 Cell Proliferation Assay (1); type: cell-based; conditions: Homo sapiens, A-375
Outline: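 Resazurin fluorescence (excitation 540 nm, emission 600 nm, after a further 5-6 h) gave IC50s from triplicate compound dilution series.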

[2] = biological target: B-Raf kinase (SEQ. ID NO: 2) (Homo sapiens (Human), UniProt P15056); experiment: Biochemical Assay for B-Raf (1); conditions: Table J, assay version (1); read-out: BRAF (1) IC50
Sequence of B-Raf kinase (SEQ. ID NO: 2) (P15056 416-766): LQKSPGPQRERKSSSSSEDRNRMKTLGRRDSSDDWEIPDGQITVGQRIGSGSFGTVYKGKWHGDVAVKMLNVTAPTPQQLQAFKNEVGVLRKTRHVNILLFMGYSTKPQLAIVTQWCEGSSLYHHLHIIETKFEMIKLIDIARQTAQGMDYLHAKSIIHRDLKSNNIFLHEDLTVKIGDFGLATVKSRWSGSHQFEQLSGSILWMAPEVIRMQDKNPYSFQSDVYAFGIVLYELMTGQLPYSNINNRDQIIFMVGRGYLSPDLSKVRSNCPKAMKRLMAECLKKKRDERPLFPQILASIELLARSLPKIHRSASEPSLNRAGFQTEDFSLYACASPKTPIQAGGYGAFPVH
Outline: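 IC50 derived by four-parameter sigmoidal fit of percent inhibition, normalised to uninhibited and reference-inhibitor controls, using reaction rates over 4–5 h. Coupled spectrophotometric readout (NADH loss at 340 nm, 6 h, 30° C.); 1 mM ATP, 30.1 nM MEK, 0.13 nM B-Raf, pH 7.5 Tris buffer, 1% DMSO.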

Sequence of C-Raf kinase (SEQ. ID NO: 3) (P04049 307-648 Y340D/Y341D): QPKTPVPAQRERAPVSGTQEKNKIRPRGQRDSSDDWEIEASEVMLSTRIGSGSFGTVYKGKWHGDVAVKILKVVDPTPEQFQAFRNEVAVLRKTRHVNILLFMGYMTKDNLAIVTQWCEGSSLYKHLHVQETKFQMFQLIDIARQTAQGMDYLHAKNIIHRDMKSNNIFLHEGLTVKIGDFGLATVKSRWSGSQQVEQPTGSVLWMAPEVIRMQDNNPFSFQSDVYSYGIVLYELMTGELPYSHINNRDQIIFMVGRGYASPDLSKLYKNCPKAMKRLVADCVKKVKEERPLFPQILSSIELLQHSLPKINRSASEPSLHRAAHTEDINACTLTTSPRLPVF

IC50 [1]	IC50 (H2405 cells)	IC50 (A375 cells)	IC50 [2]	SMILES
≤ 100 nM	≤ 100 nM	≤ 100 nM	≤ 100 nM	Cc1cc(F)c(NC(=O)c2ccnc(C(C)(C)F)c2)cc1-c1cncc(-c2ccnc(NC(=O)C3CC3)c2)n1 [Example 276]
≤ 100 nM	100 to 500 nM	500 to 1000 nM	≤ 100 nM	Cc1ncc(NC(=O)c2ccnc(C3CC3)c2)cc1-c1ccnc(-c2ccnc(NC(=O)C3CC3)c2)n1 [Example 277]
≤ 100 nM	1000 to 10000 nM	1000 to 10000 nM	≤ 100 nM	Cc1ncc(NC(=O)c2cnnc(C3CC3)c2)cc1-c1ccnc(-c2ccnc(NC(=O)C3CC3)c2)n1 [Example 278]
≤ 100 nM	100 to 500 nM	100 to 500 nM	≤ 100 nM	Cc1ncc(NC(=O)c2cnn(C(C)(C)C)c2)cc1-c1cccc(-c2cc(NC(=O)C3CC3)ncn2)c1 [Example 279]
